Test systems include RXF 393; NCI/ADR-RES; TK-10; SK-MEL-28; OVCAR-4; HCT-116; LOX IMVI; SF-268; KM12; OVCAR-8; CAKI-1; SF-295; IGROV-1; SNB-19; CCRF-CEM; SNB-75; HL-60; RPMI-8226; HCT-15; HOP-92.
Test in all cases: NCI-60 cell line screen, 48 h

The values that follow come from ChEMBL document CHEMBL1201862, “PubChem BioAssay data set” (2004).

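Five compound concentrations were applied to cells in 96-well plates for 48 hours; endpoints were derived by simple linear interpolation of the resulting dose-response curve. Abbreviation: GI50, concentration required for 50% inhibition of growth.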 Active and inactive are the calls of the source. Cut-off read from the data, not from the text of the source: active = GI50 up to about 1.1 µM and inactive = higher.

As for `COc1ccc(C(=O)N=C2N(c3ccccc3)C(=N/c3ccccc3)/C(=N\c3ccccc3)N2c2ccccc2)cc1`, the GI50 was 2.26 µM (inactive) in the experiment with RXF 393; > 100 µM (inactive) with NCI/ADR-RES; 18.5 µM (inactive) with TK-10; 18.3 µM (inactive) in the experiment with SK-MEL-28; 21.9 µM (inactive) in the experiment on OVCAR-4; 36.1 µM (inactive) in the experiment on HCT-116. Further, the GI50 was 49 µM (inactive) in the experiment on LOX IMVI; 65.8 µM (inactive) in the experiment with SF-268; > 61.2 µM (inactive) in the experiment with KM12; 20 µM (inactive) with OVCAR-8; 39.9 µM (inactive) with CAKI-1; 33.3 µM (inactive) with SF-295. For the same compound, the GI50 was 54 µM (inactive) in the experiment on IGROV-1; 19.2 µM (inactive) in the experiment with SNB-19; > 100 µM (inactive) in the experiment with CCRF-CEM; 7.82 µM (inactive) in the experiment on SNB-75; > 100 µM (inactive) in the experiment on HL-60; > 74.6 µM (inactive) with RPMI-8226. For the same compound, the GI50 was greater than 100 µM in the experiment with HCT-15 and 2.9 µM (inactive) in the experiment with HOP-92.
For the compound `CCOC(=O)C(Cl)(NC(=O)OCc1ccccc1)C(F)(F)F` (stereo not given), the GI50 in the experiment with RXF 393, with NCI/ADR-RES, in the experiment on TK-10, with SK-MEL-28, in the experiment on OVCAR-4 and in the experiment with HCT-116 was > 100 µM (inactive) each time. Also, the GI50 in the experiment on LOX IMVI, in the experiment on SF-268, in the experiment with KM12, in the experiment with OVCAR-8, with CAKI-1 and with SF-295 was > 100 µM (inactive) throughout. In addition, the GI50 with IGROV-1, in the experiment on SNB-19, in the experiment with CCRF-CEM, in the experiment with SNB-75, in the experiment on HL-60 and in the experiment with RPMI-8226 was > 100 µM (inactive) each time. Also, the GI50 in the experiment on HCT-15 was greater than 100 µM; in the experiment with HOP-92, > 100 µM (inactive).
`O=c1c2cccnc2[nH]c2ccc3cn[nH]c3c12`: the GI50 is 2.15 µM (inactive) in the experiment on RXF 393; > 10 µM (inactive) in the experiment with NCI/ADR-RES; > 10 µM (inactive) with TK-10; > 10 µM (inactive) in the experiment on SK-MEL-28; > 10 µM (inactive) with OVCAR-4; 3.61 µM (inactive) in the experiment with HCT-116. The GI50 in the experiment on LOX IMVI is 5.58 µM (inactive); in the experiment on SF-268 it was > 10 µM (inactive); in the experiment on KM12, 5.05 µM (inactive); with OVCAR-8 it was 6.76 µM (inactive); in the experiment with CAKI-1, 8.77 µM (inactive); in the experiment on SF-295, > 10 µM (inactive). Further, the GI50 in the experiment on IGROV-1 is 3.33 µM (inactive); with SNB-19, > 10 µM (inactive); in the experiment with CCRF-CEM, 6.15 µM (inactive); in the experiment with SNB-75 it was 7.89 µM (inactive); in the experiment with HL-60, 4.49 µM (inactive); in the experiment on RPMI-8226 it was > 10 µM (inactive). The GI50 in the experiment with HCT-15 is 9.42 µM; in the experiment with HOP-92, > 10 µM (inactive).
In the case of `Nc1ccc(-c2nc3ccccc3s2)cc1`, the GI50 in the experiment on RXF 393 was 17.8 µM (inactive); in the experiment with NCI/ADR-RES, 22.6 µM (inactive); in the experiment on TK-10, 24.5 µM (inactive); in the experiment on SK-MEL-28, 17.1 µM (inactive); with OVCAR-4, 14.8 µM (inactive); in the experiment on HCT-116 it was 18 µM (inactive). Besides, the GI50 in the experiment with LOX IMVI was 16.8 µM (inactive); in the experiment with SF-268, 10.3 µM (inactive); with KM12, 21.4 µM (inactive); with OVCAR-8, 12.8 µM (inactive); with CAKI-1, 24.2 µM (inactive); in the experiment with SF-295 it was 29.9 µM (inactive). Further, the GI50 with IGROV-1 is 18.5 µM (inactive); with SNB-19 it was 28.1 µM (inactive); in the experiment with CCRF-CEM, 14.6 µM (inactive); in the experiment with SNB-75, 23.8 µM (inactive); with HL-60, 24.9 µM (inactive); in the experiment on RPMI-8226 it was 28.6 µM (inactive). The figures for the GI50 in the experiment on HCT-15 and in the experiment with HOP-92 were 19.5 µM and 11.4 µM (inactive), respectively.
